Where a name gives a salt, the structure may show the parent alone.

The target of the test is T1, human NTCP (Homo sapiens, UniProt Q14973).
T1 sequence (Q14973 1-349): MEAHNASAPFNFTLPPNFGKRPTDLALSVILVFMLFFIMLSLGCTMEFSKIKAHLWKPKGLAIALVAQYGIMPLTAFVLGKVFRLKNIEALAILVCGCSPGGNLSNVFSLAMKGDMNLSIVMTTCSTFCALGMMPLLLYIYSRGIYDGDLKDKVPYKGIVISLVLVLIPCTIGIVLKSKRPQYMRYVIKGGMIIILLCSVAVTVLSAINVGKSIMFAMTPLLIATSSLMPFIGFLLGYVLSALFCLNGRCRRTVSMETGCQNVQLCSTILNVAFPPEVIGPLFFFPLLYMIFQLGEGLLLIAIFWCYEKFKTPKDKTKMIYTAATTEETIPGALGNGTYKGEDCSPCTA
The test can be described thus: Screening taurocholate uptake assay (96-well, [14C]taurocholate, 10 µM drug). Particulars: for B-score functional assay: 10 µM drug; for position among the hits of the screen (combined ranking of both screening assays): 1280 drugs at 10 µM, TC uptake and Myrcludex B binding screens combined.

Where [1] appears, read: ranking over the functional and the binding screening assay.
Setting [2] is: combined ranking of functional and binding screening assays.

As to `CN1C[C@H](CNC(=O)OCc2ccccc2)C[C@@H]2c3cccc4c3c(cn4C)C[C@H]21` [Metergoline], the Ranking score under setting [1] turned out to be 269.388. Besides, the B-score functional assay (screening taurocholate uptake) is -0.571.

The molecule `Cc1c(NC(C)C)c(=O)n(-c2ccccc2)n1C.Cl` [Isopyrin hydrochloride] yielded a Ranking score under setting [1] of 209.153. For the same molecule, the B-score functional assay (screening taurocholate uptake) is on record as -3.076.

Consider `OC(CCN1CCCC1)(c1ccccc1)C1CCCCC1` (stereo not drawn) [Procyclidine hydrochloride], for which, under setting [2], the Ranking score is given as 562.821. Moreover, the B-score functional assay (screening taurocholate uptake) was -0.705.

For `C[C@H](CCC(=O)O)[C@H]1CC[C@H]2[C@@H]3[C@H](O)C[C@@H]4C[C@H](O)CC[C@]4(C)[C@H]3CC[C@]12C` [chenodeoxycholic acid], the “position among the hits of the screen (combined ranking of both screening assays)” value is recorded as ≤ 150.

Consider `CCC1(CC)C(=O)C=CNC1=O` [Pyrithyldione], for which the Ranking score under setting [2] was 558.14. The molecule further gave a B-score functional assay (screening taurocholate uptake) of 0.404.

Under setting [1], `C#Cc1cccc(Nc2ncnc3cc(OCCOC)c(OCCOC)cc23)c1` [Erlotinib] gave a Ranking score of 239.996. Also, the B-score functional assay (screening taurocholate uptake) is on record as -3.126.

Consider `CNCCCN1c2ccccc2CCc2ccccc21` [Desipramine hydrochloride], for which, where the note is “Prestwick library screen, taurocholate uptake”, the B-score functional assay worked out at 0.022. Further, the Ranking score (ranking score beside the functional and binding assay B-scores of the screen) worked out at 719.8.

As for `CCCN(CCC)C(=O)C(CCC(=O)O)NC(=O)c1ccccc1` (stereo not drawn) [Proglumide], under setting [1], the Ranking score was determined as 231.221. This molecule gave a B-score functional assay (screening taurocholate uptake) of 0.098.

On to `Cc1ccc(S(=O)(=O)NC(=O)NN2CCCCCC2)cc1` [Tolazamide], for which, under setting [2], the Ranking score stood at 601.655. In addition, the B-score functional assay (screening taurocholate uptake) is on record as -0.681.

Take `CC(C(=O)O)c1ccc(C(=O)c2cccs2)cc1` (stereo not drawn) [Suprofen]: the Ranking score under setting [2] is 554.797. The B-score functional assay (screening taurocholate uptake) is on record as -0.917.

As to `C[C@@H]1[C@H](O)[C@@H](C)/C=C/C=C/C=C/C=C/C=C/C=C/C=C/[C@H](O[C@@H]2O[C@H](C)[C@@H](O)[C@H](N)[C@@H]2O)C[C@@H]2O[C@](O)(C[C@@H](O)C[C@@H](O)[C@H](O)CC[C@@H](O)C[C@@H](O)CC(=O)O[C@H]1C)C[C@H](O)[C@H]2C(=O)O` [Amphotericin B], under setting [1], the Ranking score was determined as 61.0819. For the same molecule, the B-score functional assay (screening taurocholate uptake) is reported as -7.097.

On to `Cc1cc(C(=O)NNCc2ccccc2)no1` [Isocarboxazid], for which, under setting [2], the Ranking score was 552.74. Besides, the B-score functional assay (screening taurocholate uptake) turned out to be 0.681.

For `CC(=O)N[C@@H](CS)C(=O)O` [Acetylcysteine], the Ranking score under setting [2] was found to be 542.19. The B-score functional assay (screening taurocholate uptake) is -1.045.

As to `O=C1[C@H](CC[C@H](O)c2ccc(F)cc2)[C@@H](c2ccc(O)cc2)N1c1ccc(F)cc1` [ezetimibe, reference compound], the “position among the hits of the screen (combined ranking of both screening assays)” value was ≤ 150. In addition, under “10 µM, both screening assays”, the “NTCP inhibition in the screen (in words)” value is given as “confirmed NTCP inhibition”. In addition, under setting [1], the Ranking score was determined as 30.4959. For the same molecule, the B-score functional assay (screening taurocholate uptake) is reported as -4.28.

With `C=C1C(=O)O[C@H]2[C@H]1CC/C(C)=C/CC[C@@]1(C)O[C@@H]21` [Parthenolide], the Ranking score under setting [2] was 607.546. The molecule also displayed a B-score functional assay (screening taurocholate uptake) of 2.985.

As for `C#C[C@]1(O)CC[C@H]2[C@@H]3CCc4cc(O)ccc4[C@H]3CC[C@@]21C` [Ethinylestradiol], the Ranking score under setting [1] came to 213.127. Besides, the B-score functional assay (screening taurocholate uptake) is -1.799.

For the molecule `CN1CCCC(CC2c3ccccc3Sc3ccccc32)C1` (stereo not drawn) [Metixene hydrochloride], the Ranking score under setting [2] is 516.538. This molecule also yielded a B-score functional assay (screening taurocholate uptake) of 0.08.

In the case of `CC(=O)SCC(Cc1ccccc1)C(=O)NCC(=O)OCc1ccccc1` (stereo not drawn) [Racecadotril], the Ranking score under setting [1] was determined as 264.726. The B-score functional assay (screening taurocholate uptake) is -1.398.

Turning to `O=c1[nH]c2ccccc2n1C1CCN(CCCC(c2ccc(F)cc2)c2ccc(F)cc2)CC1` [Pimozide], the Ranking score under setting [1] was found to be 234.734. The B-score functional assay (screening taurocholate uptake) is listed as -2.417.

`CO[C@@]1(NC(=O)CSCC#N)C(=O)N2C(C(=O)O)=C(CSc3nnnn3C)CS[C@@H]21` [Cefmetazole sodium salt] yielded a Ranking score under setting [1] of 266.713. Besides, the B-score functional assay (screening taurocholate uptake) was -1.174.

In the case of `Cc1ccnc2c1NC(=O)c1cccnc1N2C1CC1` [Nevirapine], the Ranking score under setting [2] came out at 548.284. Under “screening taurocholate uptake”, the B-score functional assay is listed as -1.052.

In turn, `CN(CCOc1ccc(CC2SC(=O)NC2=O)cc1)c1ccccn1.Cl` (stereo not drawn) [Rosiglitazone Hydrochloride] displayed a Ranking score under setting [1] of 31.1127. The B-score functional assay (screening taurocholate uptake) is reported as -7.292.

`COC1=C(OC)C(=O)C(CCCCCCCCCCO)=C(C)C1=O` [Idebenone]: the Ranking score under setting [2] is on record as 488.87. Further, where the note is “screening taurocholate uptake”, the B-score functional assay stood at 0.176.

`NS(=O)(=O)c1cc2c(cc1Cl)NCNS2(=O)=O` [Hydrochlorothiazide]: under setting [2], the Ranking score was 515.124. Also, where the note is “screening taurocholate uptake”, the B-score functional assay came out at 0.079.

`OC(CCN1CCCCC1)(c1ccccc1)C1CC2C=CC1C2` (stereo not drawn) [Biperiden hydrochloride]: the Ranking score under setting [2] came to 526.369. For the setting “screening taurocholate uptake”, the B-score functional assay is reported as -0.229.

Turning to `CN[C@@H]1[C@H](O)[C@H](NC)[C@H]2O[C@@]3(O)C(=O)C[C@@H](C)O[C@H]3O[C@@H]2[C@H]1O.Cl.Cl` [Spectinomycin dihydrochloride], the Ranking score under setting [1] is reported as 126.98. Further, the B-score functional assay (screening taurocholate uptake) is -0.865.

Under setting [1], `Cl.Cl.OCCN1CCN(CC/C=C2/c3ccccc3Sc3ccc(Cl)cc32)CC1` [Zuclopenthixol dihydrochloride] registered a Ranking score of 243.28. Also, under “screening taurocholate uptake”, the B-score functional assay was -0.306.

Consider `CCC(C)(C)c1ccc(CC(C)CN2C[C@@H](C)O[C@@H](C)C2)cc1` (stereo partly drawn) [Amorolfine hydrochloride], for which the Ranking score under setting [2] is reported as 533.183. Besides, the B-score functional assay (screening taurocholate uptake) is given as -0.84.

`Cl.Cl.c1ccc2c(c1)CCCc1cc(NCCN3CCOCC3)nnc1-2` gave a Ranking score under setting [1] of 77.0714. Also, the B-score functional assay (screening taurocholate uptake) is given as -1.983.

Under setting [1], `CC(=O)Oc1ccc(C(c2ccc(OC(C)=O)cc2)c2ccccn2)cc1` [Bisacodyl] came in with a Ranking score of 63. Further, the B-score functional assay (screening taurocholate uptake) was -3.114.

On to `CCC(=O)O[C@]1(C(=O)CCl)[C@@H](C)C[C@H]2[C@@H]3CCC4=CC(=O)C=C[C@]4(C)[C@@]3(F)[C@@H](O)C[C@@]21C` [Clobetasol propionate], for which, under setting [1], the Ranking score stood at 265.371. For the same molecule, the B-score functional assay (screening taurocholate uptake) is -0.819.

Take `CC1(C)S[C@@H]2[C@H](NC(=O)[C@H](N)c3ccccc3)C(=O)N2[C@H]1C(=O)O` [Ampicillin trihydrate]: the Ranking score under setting [1] was found to be 199.178. Moreover, where the note is “screening taurocholate uptake”, the B-score functional assay is on record as -0.594.

Take `CN1[C@@H]2CC(OC(=O)[C@H](CO)c3ccccc3)C[C@H]1[C@@H]1O[C@@H]12.Cl` (stereo partly drawn) [Scopolamine hydrochloride]: the Ranking score under setting [2] was found to be 577.314. For the same molecule, the B-score functional assay (screening taurocholate uptake) is on record as 0.343.

Turning to `COCCOC(=O)C1=C(C)NC(C)=C(C(=O)OC/C=C/c2ccccc2)C1c1cccc([N+](=O)[O-])c1` (stereo not drawn) [Cilnidipine], the Ranking score under setting [2] was 582.255. The molecule further yielded a B-score functional assay (screening taurocholate uptake) of 0.219.

Regarding `CCCC(=O)Nc1ncnc2c1ncn2[C@@H]1O[C@@H]2COP(=O)([O-])O[C@H]2[C@H]1OC(=O)CCC.[Na+]` [Bucladesine sodium salt], under setting [2], the Ranking score is listed as 477.022. Further, the B-score functional assay (screening taurocholate uptake) is -0.403.

In turn, `C=C(NC(=O)C(=C)NC(=O)c1csc(C2=N[C@@H]3c4csc(n4)[C@H]4NC(=O)c5csc(n5)[C@H]([C@](C)(O)[C@@H](C)O)NC(=O)[C@H]5CSC(=N5)/C(=C/C)NC(=O)[C@H]([C@@H](C)O)NC(=O)c5csc(n5)[C@]3(CC2)NC(=O)[C@H](C)NC(=O)C(=C)NC(=O)[C@H](C)NC(=O)[C@H]([C@@H](C)CC)N[C@@H]2C=Cc3c([C@H](C)O)cc(nc3[C@H]2O)C(=O)O[C@@H]4C)n1)C(N)=O` [Thiostrepton] yielded a Ranking score under setting [1] of 23.8747. Besides, where the note is “screening taurocholate uptake”, the B-score functional assay was -0.068.

On to `Clc1ccc2c(c1)C(N1CCNCC1)=Nc1ccccc1O2` [Amoxapine], for which the Ranking score under setting [2] came to 604.055. For the same molecule, under “screening taurocholate uptake”, the B-score functional assay amounted to 0.589.

For the molecule `O=C(COc1ccc(Cl)cc1)N1CCN(Cc2ccc3c(c2)OCO3)CC1` [Fipexide hydrochloride], the Ranking score under setting [1] worked out at 172.884. Also, the B-score functional assay (screening taurocholate uptake) is -2.118.

Molecule `CC1(C)[C@@H](OC(=O)CCC(=O)O)CC[C@]2(C)[C@H]3C(=O)C=C4[C@@H]5C[C@@](C)(C(=O)O)CC[C@]5(C)CC[C@@]4(C)[C@]3(C)CC[C@@H]12` [Carbenoxolone disodium salt] registered a Ranking score under setting [1] of 79.4984. Further, the B-score functional assay (screening taurocholate uptake) is reported as -5.734.

For the molecule `C=CC[C@]1(O)CC[C@H]2[C@@H]3CCC4=CC(=O)CCC4=C3C=C[C@@]21C` [Altrenogest], the Ranking score under setting [2] was determined as 607.028. The molecule further returned a B-score functional assay (screening taurocholate uptake) of 0.332.

Regarding `CCN(CC)C(=S)SSC(=S)N(CC)CC` [Disulfiram], the Ranking score under setting [1] stood at 82.3772. Under “screening taurocholate uptake”, the B-score functional assay is reported as -4.037.

Take `CCOC(=O)c1ccc(OC(=O)CCCCCN=C(N)N)cc1.CS(=O)(=O)O` [Gabexate mesilate]: the Ranking score under setting [1] is given as 203.005. This molecule had a B-score functional assay (screening taurocholate uptake) of 0.072.

For `C[N+]1(C)CCCC(OC(=O)C(O)(c2ccccc2)c2ccccc2)C1` (stereo not drawn) [Mepenzolate bromide], the Ranking score under setting [2] was 545.72. The B-score functional assay (screening taurocholate uptake) is on record as 1.196.
